How the values were obtained:
[1] = Tissue concentration of aprepitant by HPLC after oral or inhaled administration to rabbits; type: in vivo, New Zealand albino rabbits; conditions: for concentration at 7 days: New Zealand White, rabbit, lung, seven days
Protocol: Herein, New Zealand albino rabbits (New Zealand White Rabbits) with an initial average weight of approximately 3 kg were used. The rabbits were fed ad libitum and were monitored daily to check that signs of toxicity had not appeared. […] This mixture was administered as an aerosol to the airways of a group of 3 of said rabbits (Group 5) in a dose of 0.05 mg/kg body weight per day, to another group of three rabbits (Group 6) in a dose of 0.1 mg/kg body weight per day, to another group of three rabbits (group 7) in a dose of 0.2 mg/kg body weight per day and to another group of three rabbits (Group 8) in a dose of 0.4 mg/kg body weight per day. […] After seven days of treatment all animals were euthanized and necropsied. […] Samples were taken at the peripheral level of the lung parenchyma, just below the pleural surface. Tissue samples were also taken from the nasal cavity, pharynx, larynx and bronchi. […] The average is the arithmetic average calculated for each row or column of each table. The SD is the standard deviation, calculated for each row or column of each table.

[2] = molecular target: T1, CYP3A4 (Homo sapiens, UniProt P08684); conditions: human hepatic microsomes; cited from earlier work
T1 construct: In vitro studies in which human hepatic microsomes were used; from tissue; host or cells: human hepatic (liver) microsomes
T1 sequence (P08684 whole entry): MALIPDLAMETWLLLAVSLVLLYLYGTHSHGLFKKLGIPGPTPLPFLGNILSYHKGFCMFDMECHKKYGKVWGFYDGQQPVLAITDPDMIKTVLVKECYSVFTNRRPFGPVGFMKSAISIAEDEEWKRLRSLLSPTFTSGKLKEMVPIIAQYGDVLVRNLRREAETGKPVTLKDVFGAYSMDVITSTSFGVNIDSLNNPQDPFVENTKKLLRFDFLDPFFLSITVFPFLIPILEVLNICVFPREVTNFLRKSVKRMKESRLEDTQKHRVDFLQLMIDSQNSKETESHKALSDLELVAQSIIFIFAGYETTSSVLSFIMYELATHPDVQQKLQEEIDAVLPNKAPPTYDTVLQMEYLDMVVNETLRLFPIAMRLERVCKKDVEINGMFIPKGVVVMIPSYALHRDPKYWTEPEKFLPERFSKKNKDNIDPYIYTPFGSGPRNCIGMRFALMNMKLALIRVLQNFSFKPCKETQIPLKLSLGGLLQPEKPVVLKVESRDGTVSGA

- concentration at 7 days ([1]; left superior lobe, po, 10 mg/kg/day, Lung concentration of aprepitant LSPI (left superior lobe), Group 1, oral 10 mg/kg per day, individual cases): 500 ng/g
- concentration at 7 days ([1]; left superior lobe, po, 10 mg/kg/day, Lung concentration of aprepitant LSPI, Average ± SD of cases, Group 1, oral 10 mg/kg per day): 600 ng/g
- concentration at 7 days ([1]; left superior lobe, po, 40 mg/kg/day, Lung concentration of aprepitant LSPI (left superior lobe), Group 2, oral 40 mg/kg per day, individual cases): 5300 ng/g
- concentration at 7 days ([1]; left superior lobe, po, 40 mg/kg/day, Lung concentration of aprepitant LSPI, Average ± SD of cases, Group 2, oral 40 mg/kg per day): 4300 ng/g
- concentration at 7 days ([1]; left superior lobe, po, 80 mg/kg/day, Lung concentration of aprepitant LSPI (left superior lobe), Group 3, oral 80 mg/kg per day, individual cases): 3900 ng/g
- concentration at 7 days ([1]; left superior lobe, po, 80 mg/kg/day, Lung concentration of aprepitant LSPI, Average ± SD of cases, Group 3, oral 80 mg/kg per day): 4700 ng/g
- concentration at 7 days ([1]; right inferior lobe, inhaled, 0.4 mg/kg/day, Lung concentration of aprepitant LIPD (right inferior lobe), Group 8, inhalation (aerosol, olive oil) 0.4 mg/kg per day, individual cases): 9900 ng/g
- concentration at 7 days ([1]; right inferior lobe, inhaled, 0.4 mg/kg/day, Lung concentration of aprepitant LIPD, Average ± SD of cases, Group 8, inhalation (aerosol, olive oil) 0.4 mg/kg per day): 10100 ng/g
- concentration at 7 days ([1]; right inferior lobe, po, 10 mg/kg/day, Lung concentration of aprepitant LIPD (right inferior lobe), Group 1, oral 10 mg/kg per day, individual cases): 600 ng/g
- concentration at 7 days ([1]; right inferior lobe, po, 10 mg/kg/day, Lung concentration of aprepitant LIPD, Average ± SD of cases, Group 1, oral 10 mg/kg per day): 800 ng/g
- concentration at 7 days ([1]; right inferior lobe, po, 40 mg/kg/day, Lung concentration of aprepitant LIPD (right inferior lobe), Group 2, oral 40 mg/kg per day, individual cases): 3300 ng/g
- concentration at 7 days ([1]; right inferior lobe, po, 40 mg/kg/day, Lung concentration of aprepitant LIPD, Average ± SD of cases, Group 2, oral 40 mg/kg per day): 3500 ng/g
- concentration at 7 days ([1]; right inferior lobe, po, 80 mg/kg/day, Lung concentration of aprepitant LIPD (right inferior lobe), Group 3, oral 80 mg/kg per day, individual cases): 5100 ng/g
- concentration at 7 days ([1]; right inferior lobe, po, 80 mg/kg/day, Lung concentration of aprepitant LIPD, Average ± SD of cases, Group 3, oral 80 mg/kg per day): 5500 ng/g
- concentration at 7 days ([1]; right middle lobe, inhaled, 0.4 mg/kg/day, Lung concentration of aprepitant LMPD (right middle lobe), Group 8, inhalation (aerosol, olive oil) 0.4 mg/kg per day, individual cases): 10000 ng/g
- concentration at 7 days ([1]; right middle lobe, inhaled, 0.4 mg/kg/day, Lung concentration of aprepitant LMPD, Average ± SD of cases, Group 8, inhalation (aerosol, olive oil) 0.4 mg/kg per day): 10000 ng/g
- concentration at 7 days ([1]; right middle lobe, po, 10 mg/kg/day, Lung concentration of aprepitant LMPD (right middle lobe), Group 1, oral 10 mg/kg per day, individual cases): 1100 ng/g
- concentration at 7 days ([1]; right middle lobe, po, 10 mg/kg/day, Lung concentration of aprepitant LMPD, Average ± SD of cases, Group 1, oral 10 mg/kg per day): 1300 ng/g
- concentration at 7 days ([1]; right middle lobe, po, 40 mg/kg/day, Lung concentration of aprepitant LMPD (right middle lobe), Group 2, oral 40 mg/kg per day, individual cases): 4200 ng/g
- concentration at 7 days ([1]; right middle lobe, po, 40 mg/kg/day, Lung concentration of aprepitant LMPD, Average ± SD of cases, Group 2, oral 40 mg/kg per day): 4000 ng/g
- concentration at 7 days ([1]; right middle lobe, po, 80 mg/kg/day, Lung concentration of aprepitant LMPD (right middle lobe), Group 3, oral 80 mg/kg per day, individual cases): 4800 ng/g
- concentration at 7 days ([1]; right middle lobe, po, 80 mg/kg/day, Lung concentration of aprepitant LMPD, Average ± SD of cases, Group 3, oral 80 mg/kg per day): 5200 ng/g
- concentration at 7 days ([1]; right middle lobe, po, 100 mg/kg/day, Lung concentration of aprepitant LMPD (right middle lobe), Group 4, oral 100 mg/kg per day, individual cases): 5800 ng/g
- concentration at 7 days ([1]; right superior lobe, inhaled, 0.4 mg/kg/day, Lung concentration of aprepitant LSPD (right superior lobe), Group 8, inhalation (aerosol, olive oil) 0.4 mg/kg per day, individual cases): 10100 ng/g
- concentration at 7 days ([1]; right superior lobe, inhaled, 0.4 mg/kg/day, Lung concentration of aprepitant LSPD, Average ± SD of cases, Group 8, inhalation (aerosol, olive oil) 0.4 mg/kg per day): 9900 ng/g
- concentration at 7 days ([1]; right superior lobe, po, 10 mg/kg/day, Lung concentration of aprepitant LSPD, Average ± SD of cases, Group 1, oral 10 mg/kg per day): 900 ng/g
- concentration at 7 days ([1]; right superior lobe, po, 40 mg/kg/day, Lung concentration of aprepitant LSPD (right superior lobe), Group 2, oral 40 mg/kg per day, individual cases): 3200 ng/g
- concentration at 7 days ([1]; right superior lobe, po, 40 mg/kg/day, Lung concentration of aprepitant LSPD, Average ± SD of cases, Group 2, oral 40 mg/kg per day): 3500 ng/g
- concentration at 7 days ([1]; right superior lobe, po, 80 mg/kg/day, Lung concentration of aprepitant LSPD (right superior lobe), Group 3, oral 80 mg/kg per day, individual cases): 4900 ng/g
- concentration at 7 days ([1]; right superior lobe, po, 80 mg/kg/day, Lung concentration of aprepitant LSPD, Average ± SD of cases, Group 3, oral 80 mg/kg per day): 4100 ng/g
- concentration at 7 days ([1]; right superior lobe, po, 100 mg/kg/day, Lung concentration of aprepitant LSPD (right superior lobe), Group 4, oral 100 mg/kg per day, individual cases): 5100 ng/g
Structure (SMILES): C[C@@H](OC1OCCN(Cc2nc(=O)[nH][nH]2)C1c1ccc(F)cc1)c1cc(C(F)(F)F)cc(C(F)(F)F)c1 (stereo in doubt) [Aprepitant, 5-([(2R,3S)-2-((R)-1-[3,5-bis(trifluoromethyl)phenyl]ethoxy)-3-(4-fluorophenyl)morpholino]methyl)-1H-1,2,4-triazol-3(2H)-one]
- relationship between dose and concentration in the lungs ([1]; inhalation, 0.05 to 0.4 mg/kg per day): proportional to the dose administered by inhalation
- metabolising enzyme [2]: principally metabolized by CYP3A4
